From US9296757B2, “Substituted benzothienopyrimidines” (BAYER PHARMA AKTIENGESELLSCHAFT, priority 2012, dated 2016) come the findings set out here.

Sequence of human full-length MKNK1 (Q9BUB5 other isoform, or with tags, fused parts or gaps T344D): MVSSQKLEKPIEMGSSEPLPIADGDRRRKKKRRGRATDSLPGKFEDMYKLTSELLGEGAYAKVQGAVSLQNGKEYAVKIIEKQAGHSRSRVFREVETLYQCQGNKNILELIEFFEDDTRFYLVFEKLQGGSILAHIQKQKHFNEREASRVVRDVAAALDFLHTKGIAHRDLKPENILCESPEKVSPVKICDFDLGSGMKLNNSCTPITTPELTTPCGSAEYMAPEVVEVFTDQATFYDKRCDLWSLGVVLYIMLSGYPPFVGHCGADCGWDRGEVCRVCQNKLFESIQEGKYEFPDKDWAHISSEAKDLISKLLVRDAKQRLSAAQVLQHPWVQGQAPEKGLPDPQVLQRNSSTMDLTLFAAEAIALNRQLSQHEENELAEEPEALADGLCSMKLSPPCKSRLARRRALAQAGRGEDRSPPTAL

For this test, the target named is human full-length MKNK1 (Homo sapiens (Human), UniProt Q9BUB5, T344D). Briefly: MKNK1 kinase high ATP assay (TR-FRET). It is filed as biochemical. The following applies: high ATP (2 mM final), 15 min preincubation with enzyme. The protocol:
MKNK1-inhibitory activity at high ATP of compounds of the present invention after their preincubation with MKNK1 was quantified employing the TR-FRET-based MKNK1 high ATP assay as described in the following paragraphs.
A recombinant fusion protein of Glutathione-S-Transferase (GST, N-terminally) and human full-length MKNK1 (amino acids 1-424 and T344D of accession number BAA 19885.1), expressed in insect cells using baculovirus expression system and purified via glutathione sepharose affinity chromatography, was purchased from Carna Biosciences (product no 02-145) and used as enzyme. As substrate for the kinase reaction the biotinylated peptide biotin-Ahx-IKKRKLTRRKSLKG (C-terminus in amide form) was used, which can be purchased e.g. from the company Biosyntan (Berlin-Buch, Germany).
For the assay 50 nL of a 100 fold concentrated solution of the test compound in DMSO was pipetted into a black low volume 384 well microtiter plate (Greiner Bio-One, Frickenhausen, Germany), 2 μL of a solution of MKNK1 in aqueous assay buffer [50 mM HEPES pH 7.5, 5 mM MgCl2, 1.0 mM dithiothreitol, 0.005% (v/v) Nonidet-P40 (Sigma)] was added and the mixture was incubated for 15 min at 22° C. to allow pre-binding of the test compounds to the enzyme before the start of the kinase reaction. Then the kinase reaction was started by the addition of 3 μL of a solution of adenosine-tri-phosphate (ATP, 3.3 mM=>final conc. in the 5 μL assay volume is 2 mM) and substrate (0.1 μM=>final conc. in the 5 μL assay volume is 0.06 μM) in assay buffer and the resulting mixture was incubated for a reaction time of 30 min at 22° C. The concentration of MKNK1 was adjusted depending of the activity of the enzyme lot and was chosen appropriate to have the assay in the linear range, typical concentrations were in the range of 0.003 μg/mL. The reaction was stopped by the addition of 5 μL of a solution of TR-FRET detection reagents (5 nM streptavidine-XL665 [Cisbio Bioassays, Codolet, France] and 1 nM anti-ribosomal protein S6 (pSer236)-antibody from Invitrogen [#44921G] and 1 nM LANCE EU-W1024 labeled ProteinG [Perkin-Elmer, product no. AD0071]) in an aqueous EDTA-solution (100 mM EDTA, 0.1% (w/v) bovine serum albumin in 50 mM HEPES pH 7.5).
The resulting mixture was incubated for 1 h at 22° C. to allow the formation of complex between the phosphorylated biotinylated peptide and the detection reagents. Subsequently the amount of phosphorylated substrate was evaluated by measurement of the resonance energy transfer from the Eu-chelate to the streptavidine-XL. Therefore, the fluorescence emissions at 620 nm and 665 nm after excitation at 350 nm were measured in a TR-FRET reader, e.g. a Rubystar (BMG Labtechnologies, Offenburg, Germany) or a Viewlux (Perkin-Elmer). The ratio of the emissions at 665 nm and at […] was taken as the measure for the amount of phosphorylated substrate. The data were normalised (enzyme reaction without inhibitor=0% inhibition, all other assay components but no enzyme=100% inhibition).
A general note: Time-resolved FRET reads energy transfer from a long-lived donor to a nearby acceptor.
`O=C(C1CCc2c(sc3ncnc(Nc4ccc5[nH]c(=O)sc5c4)c23)C1)N1CCCC1CO` (racemic) [Example 46, 6-{[(7RS)-7-{[(2RS)-2-(hydroxymethyl)pyrrolidin-1-yl]carbonyl}-5,6,7,8-tetrahydro[1]benzothieno[2,3-d]pyrimidin-4-yl]amino}-1,3-benzothiazol-2(3H)-one] displayed an IC50 of 35 nM.
With `COCC1(OC)CCc2c(sc3ncnc(Nc4ccc5[nH]c(=O)sc5c4)c23)C1` (racemic) [Example 16, (RS)-6-{[7-Methoxy-7-(methoxymethyl)-5,6,7,8-tetrahydro[1]benzothieno[2,3-d]pyrimidin-4-yl]amino}-1,3-benzothiazol-2(3H)-one] the figure was 304 nM.
For `O=C(C1CCc2c(sc3ncnc(Nc4ccc5[nH]c(=O)sc5c4)c23)C1)N1CCC(O)C1` (racemic) [Example 51, 6-{[(7RS)-7-{[(3RS)-3-hydroxypyrrolidin-1-yl]carbonyl}-5,6,7,8-tetrahydro[1]benzothieno[2,3-d]pyrimidin-4-yl]amino}-1,3-benzothiazol-2(3H)-one], half-maximal inhibition (IC50) was put at 75 nM.
`CCN(CCOC)C(=O)C1CCc2c(sc3ncnc(Nc4cc5sc(=O)[nH]c5cc4OC)c23)C1` (racemic) [Example 90, (RS)—N-Ethyl-N-(2-methoxyethyl)-4-[(5-methoxy-2-oxo-2,3-dihydro-1,3-benzothiazol-6-yl)amino]-5,6,7,8-tetrahydro[1]benzothieno[2,3-d]pyrimidine-7-carboxamide] displayed an IC50 of 1 nM.
With `COCCN(CCOC)C(=O)C1CCc2c(sc3ncnc(Nc4cc5sc(=O)[nH]c5cc4OC)c23)C1` (racemic) [Example 93, (RS)—N,N-bis(2-methoxyethyl)-4-[(5-methoxy-2-oxo-2,3-dihydro-1,3-benzothiazol-6-yl)amino]-5,6,7,8-tetrahydro[1]benzothieno[2,3-d]pyrimidine-7-carboxamide] the figure was 0.7 nM; with `COCCN(CCOC)C(=O)C1CCc2c(sc3ncnc(Nc4ccc5[nH]c(=O)sc5c4)c23)C1` (racemic) [Example 52, (RS)-N,N-bis(2-methoxyethyl)-4-[(2-oxo-2,3-dihydro-1,3-benzothiazol-6-yl)amino]-5,6,7,8-tetrahydro[1]benzothieno[2,3-d]pyrimidine-7-carboxamide], 30 nM; with `CNC(=O)C1CCc2c(sc3ncnc(Nc4ccc5[nH]c(=O)sc5c4)c23)C1` (racemic) [Example 11, (RS)—N-Methyl-4-[(2-oxo-2,3-dihydro-1,3-benzothiazol-6-yl)amino]-5,6,7,8-tetrahydro[1]benzothieno[2,3-d]pyrimidine-7-carboxamide], 91 nM.
With `O=C(C1CCc2c(sc3ncnc(Nc4ccc5[nH]c(=O)sc5c4)c23)C1)N1CC(N2CCCCC2)C1` (racemic) [Example 79, (RS)-6-[(7-{[3-(piperidin-1-yl)azetidin-1-yl]carbonyl}-5,6,7,8-tetrahydro[1]benzothieno[2,3-d]pyrimidin-4-yl)amino]-1,3-benzothiazol-2(3H)-one] the figure was 38 nM; with `COc1cc2[nH]c(=O)sc2cc1Nc1ncnc2sc3c(c12)CCC(C(=O)N(C)C)C3` (racemic) [Example 85, (RS)-4-[(5-methoxy-2-oxo-2,3-dihydro-1,3-benzothiazol-6-yl)amino]-N,N-dimethyl-5,6,7,8-tetrahydro[1]benzothieno[2,3-d]pyrimidine-7-carboxamide], 4 nM; with `CCN(C)C(=O)C1CCc2c(sc3ncnc(Nc4ccc5[nH]c(=O)sc5c4)c23)C1` (racemic) [Example 59, (RS)-N-ethyl-N-methyl-4-[(2-oxo-2,3-dihydro-1,3-benzothiazol-6-yl)amino]-5,6,7,8-tetrahydro[1]benzothieno[2,3-d]pyrimidine-7-carboxamide], 40 nM.
On to `O=C(C1CCc2c(sc3ncnc(Nc4ccc5[nH]c(=O)sc5c4)c23)C1)N1CC2(COC2)C1` (racemic) [Example 83, (RS)-6-{[7-(2-oxa-6-azaspiro[3.3]hept-6-ylcarbonyl)-5,6,7,8-tetrahydro[1]benzothieno[2,3-d]pyrimidin-4-yl]amino}-1,3-benzothiazol-2(3H)-one], for which inhibition was half-maximal at 52 nM (IC50).
`CN(C)C(=O)CN(C)C(=O)C1CCc2c(sc3ncnc(Nc4ccc5[nH]c(=O)sc5c4)c23)C1` (racemic) [Example 62, (RS)-N-[2-(dimethylamino)-2-oxoethyl]-N-methyl-4-[(2-oxo-2,3-dihydro-1,3-benzothiazol-6-yl)amino]-5,6,7,8-tetrahydro[1]benzothieno[2,3-d]pyrimidine-7-carboxamide] had an IC50 of 40 nM.
With `O=C(C1CCc2c(sc3ncnc(Nc4ccc5[nH]c(=O)sc5c4)c23)C1)N1CCC1` (racemic) [Example 45, (RS)-6-{[7-(azetidin-1-ylcarbonyl)-5,6,7,8-tetrahydro[1]benzothieno[2,3-d]pyrimidin-4-yl]amino}-1,3-benzothiazol-2(3H)-one] the figure was 70 nM; with `CC(C)NC(=O)NCC1CCc2c(sc3ncnc(Nc4ccc5[nH]c(=O)sc5c4)c23)C1` (racemic) [Example 22, (RS)-1-({4-[(2-Oxo-2,3-dihydro-1,3-benzothiazol-6-yl)amino]-5,6,7,8-tetrahydro[1]benzothieno[2,3-d]pyrimidin-7-yl}methyl)-3-propan-2-ylurea], 59 nM.
With `CC1CN(C(=O)C2CCc3c(sc4ncnc(Nc5ccc6[nH]c(=O)sc6c5)c34)C2)CC(C)O1` (racemic) [Example 68, 6-{[(7RS)-7-{[(2RS,6RS)-2,6-dimethylmorpholin-4-yl]carbonyl}-5,6,7,8-tetrahydro[1]benzothieno[2,3-d]pyrimidin-4-yl]amino}-1,3-benzothiazol-2(3H)-one] the figure was 32 nM.
The molecule `CCN(C(=O)C1CCc2c(sc3ncnc(Nc4cc5sc(=O)[nH]c5cc4OC)c23)C1)C(C)C` (racemic) [Example 86, (RS)—N-Ethyl-N-isopropyl-4-[(5-methoxy-2-oxo-2,3-dihydro-1,3-benzothiazol-6-yl)amino]-5,6,7,8-tetrahydro[1]benzothieno[2,3-d]pyrimidine-7-carboxamide] returned an IC50 of 3 nM.
With `CC1CCc2c(sc3ncnc(Nc4ccc5[nH]c(=O)sc5c4)c23)C1` (racemic) [Example 17, (RS)-6-[(7-Methyl-5,6,7,8-tetrahydro[1]benzothieno[2,3-d]pyrimidin-4-yl)amino]-1,3-benzothiazol-2(3H)-one] the figure was 128 nM; with `CCN(CCOC)C(=O)C1CCc2c(sc3ncnc(Nc4ccc5[nH]c(=O)sc5c4)c23)C1` (racemic) [Example 70, (RS)-N-ethyl-N-(2-methoxyethyl)-4-[(2-oxo-2,3-dihydro-1,3-benzothiazol-6-yl)amino]-5,6,7,8-tetrahydro[1]benzothieno[2,3-d]pyrimidine-7-carboxamide], 24 nM; with `CC1CCN(C(=O)C2CCc3c(sc4ncnc(Nc5ccc6[nH]c(=O)sc6c5)c34)C2)CC1` (racemic) [Example 50, (RS)-6-({7-[(4-methylpiperidin-1-yl)carbonyl]-5,6,7,8-tetrahydro[1]benzothieno[2,3-d]pyrimidin-4-yl}amino)-1,3-benzothiazol-2(3H)-one], 43 nM.
Regarding `CCCCN(C)C(=O)C1CCc2c(sc3ncnc(Nc4cc5sc(=O)[nH]c5cc4OC)c23)C1` (racemic) [Example 89, (RS)—N-Butyl-4-[(5-methoxy-2-oxo-2,3-dihydro-1,3-benzothiazol-6-yl)amino]-N-methyl-5,6,7,8-tetrahydro[1]benzothieno[2,3-d]pyrimidine-7-carboxamide], the IC50 was 1.9 nM.
With `CCCCN(CC#N)C(=O)C1CCc2c(sc3ncnc(Nc4cc5sc(=O)[nH]c5cc4OC)c23)C1` (racemic) [Example 88, (RS)—N-Butyl-N-(cyanomethyl)-4-[(5-methoxy-2-oxo-2,3-dihydro-1,3-benzothiazol-6-yl)amino]-5,6,7,8-tetrahydro[1]benzothieno[2,3-d]pyrimidine-7-carboxamide] the figure was 1 nM.

In general, IC50 refers to the concentration that gives 50% inhibition. A low value points to higher potency.
